# Measured values as given in patent US7547804B2, “Compounds, compositions, and methods employing same” (Myriad Genetics, Inc., priority 2002, dated 2009).
# System: LNCaP cell lines
# Test: WST-1 Cell Proliferation and Viability Assay
# Assay type: cell-based
# Conditions: Homo sapiens, LNCaP cells
# Method in brief: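 LNCaP cells (5000/well, phenol-red-free RPMI-1640 with 10% FCS) were plated overnight, then exposed to compounds in 0.1% DMSO final for 18-72 hours at 37 °C. Viability was read by WST-1 conversion to formazan after 3 h further incubation, measured at A490-A650.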
# [1] = compound incubation 18-72 hours
# [2] = flagged "Estimated": based on actual data at different concentrations
SMILES,EC50 [1] [µM],EC50 [2] [µM]
Cc1oc(-c2ccccc2)nc1CCOc1ccc(Cl)cc1NC(=O)c1cc(Cl)ccc1O [Compound 132],5,
O=C(Nc1cccc(OCc2ccc(Cl)cc2)c1)c1cc(Cl)ccc1O [Compound 65],17,
O=C(NCCc1ccc(OCc2ccccc2)c(OCc2ccccc2)c1)c1cc(Cl)ccc1O [Compound 69],14,
O=C(Nc1cc(COCc2ccccc2)ccc1Cl)c1cc(Cl)ccc1O [Compound 279],6,
O=C(NCc1cccc(-c2ccccc2)c1)c1ccc(F)cc1O [Compound 189],30,
CS(=O)(=O)c1ccc(CCOc2ccc(Cl)cc2NC(=O)c2cc(Cl)ccc2O)cc1 [Compound 286],10,
O=C(Nc1cccc(OCCc2ccccc2)c1)c1cc(-c2ccc(F)cc2F)ccc1O [Compound 226],7,
CCC(C)c1cccc(-c2cccc(CNC(=O)c3cc(Cl)ccc3O)c2)c1 (stereo not drawn) [Compound 236],11,
Cc1cccc(CCOc2cccc(NC(=O)c3cc(Cl)ccc3O)c2)c1 [Compound 57],15,
COc1ccc(NC(=O)c2cc(Cl)ccc2O)cc1OCCc1ccccc1 [Compound 12],13,
O=CNc1cccc(C(=O)Nc2cc(C(F)(F)F)ccc2OCCc2cccc(C(F)(F)F)c2)c1O [Compound 261],6,
O=C(NCc1cccc(-c2ccccc2)c1)c1cc(Br)ccc1O [Compound 192],30,
COc1ccccc1CCOc1cccc(NC(=O)c2cc(-c3cccc4ccccc34)ccc2O)c1 [Compound 338],7,
COc1ccccc1CCOc1cccc(NC(=O)c2cccc(-c3ccccc3)c2O)c1 [Compound 221],17,
O=C(NCCc1ccccc1Oc1ccccc1)c1cc(Cl)ccc1O [Compound 118],,30
COc1ccccc1CCOc1cccc(NC(=O)c2cc(-c3cc4ccccc4o3)ccc2O)c1 [Compound 339],8,
COc1ccccc1CCOc1cccc(NC(=O)c2cc(-c3cc4ccccc4s3)ccc2O)c1 [Compound 354],7.3,
COc1ccccc1CCOc1cccc(NC(=O)c2cc(-c3cccc(Cl)c3)ccc2O)c1 [Compound 349],10,
O=CNc1cccc(C(=O)Nc2cccc(OCCc3ccccc3)c2)c1O [Compound 5],5,
O=C(Nc1cc(C(F)(F)F)cc(C(F)(F)F)c1)c1cc(Cl)ccc1O [Compound 169],2,
COc1ccc(OCCc2ccccc2)c(NC(=O)c2cc(Cl)ccc2O)c1 [Compound 147],6,
Cc1ccc(O)c(C(=O)NCc2cccc(-c3ccccc3)c2)c1 [Compound 206],34,
CC(COc1cccc(NC(=O)c2cc(Cl)ccc2O)c1)c1ccccc1 (stereo not drawn) [Compound 19],7,
Cc1ccccc1-c1cccc(CNC(=O)c2cc(Cl)ccc2O)c1 [Compound 144],,30
O=C(Nc1ccc(NCCc2cccc(C(F)(F)F)c2)c(C(F)(F)F)c1)c1cc(Cl)ccc1O [Compound 363],4,

SMILES,EC50 [1] [µM],EC50 [2] [µM]
Cc1ccc(CCOc2cccc(NC(=O)c3cc(Cl)ccc3O)c2)cc1 [Compound 59],10,
CC(C)c1ccc(COc2cccc(NC(=O)c3cc(Cl)ccc3O)c2)cc1 [Compound 85],6,
CN1CCN(c2ccc(NC(=O)c3cc(Cl)ccc3O)c(OCCc3cccc(C(F)(F)F)c3)c2)CC1 [Compound 358],16.3,
CC(C)c1ccc(CNc2cccc(NC(=O)c3cc(Cl)ccc3O)c2)cc1 [Compound 14],18,
Cc1cc(C)cc(CNC(=O)c2cc(Cl)ccc2O)c1 [Compound 323],,30
O=C(c1ccccc1)c1cccc(NC(=O)c2cc(Cl)ccc2O)c1 [Compound 21],9,
O=C(Nc1cc(C(F)(F)F)ccc1N1CCCC(C(=O)O)C1)c1cc(Cl)ccc1O (stereo not drawn) [Compound 316],,40
O=C(Nc1cc(Cl)ccc1OCCc1ccccc1)c1cnc2cc(C(F)(F)F)ccc2c1O [Compound 166],10,
COc1ccc(-c2ccc(O)c(C(=O)Nc3cccc(OCCc4ccccc4OC)c3)c2)cc1 [Compound 342],10,
O=C(Nc1cccc(OCCc2ccccc2)c1)c1ccc(F)cc1O [Compound 191],15,
CN(CCc1ccccn1)c1ccc(NC(=O)c2cc(Cl)ccc2O)cc1C(F)(F)F [Compound 364],7,
O=C(Nc1cccc(OCc2ccc3c(c2)OCO3)c1)c1cc(Cl)ccc1O [Compound 86],,30
O=C(NCc1ccc(Oc2ccccc2)cc1)c1cc(Cl)ccc1O [Compound 26],24,
O=C(NCc1ccc(Cl)c(-c2ccccc2)c1)c1cc(Cl)ccc1O [Compound 292],,30
O=C(Nc1ccccc1C(=O)NCc1ccccc1)c1cc(Cl)ccc1O [Compound 255],,30
O=C(NCc1cccc(OCCc2ccccc2)c1)c1cc(Cl)ccc1O [Compound 66],50,
COc1ccccc1CCOc1cccc(NC(=O)c2cc(-c3ccccc3)ccc2O)c1 [Compound 234],10,
O=C(Nc1cccc(OCCc2ccccc2C(F)(F)F)c1)c1cc(Cl)ccc1O [Compound 138],6,
COc1ccccc1CCOc1cccc(NC(=O)c2cc(-n3cccc3)ccc2O)c1 [Compound 233],10,
Cc1cccc(-c2cccc(CNC(=O)c3cc(Cl)ccc3O)c2)c1 [Compound 145],17,
O=C(Nc1cccc([N+](=O)[O-])c1)c1cc(Cl)ccc1O [Compound 23],4,
Nc1cc(Cl)cc(C(=O)Nc2cc(Cl)ccc2OCCc2ccccc2)c1O [Compound 330],19.7,
COc1ccccc1CCOc1cccc(NC(=O)c2cc(-c3ccccc3OC)ccc2O)c1 [Compound 343],17,
O=C(Nc1cc(Cl)ccc1OCCc1ccccc1)c1cc(Cl)cc([N+](=O)[O-])c1O [Compound 294],19,

# The remaining molecules from weak to strong by EC50 [1], led by results:
EC50 [1] [µM],EC50 [2] [µM],SMILES
4,,O=C(Nc1ccc(Cl)cc1)c1cc(Cl)ccc1O [Compound 93]
4,,O=C(Nc1cc(C(F)(F)F)ccc1NCCc1ccccc1Cl)c1cc(Cl)ccc1O [Compound 276]
3,,O=C(Nc1cccc(Cl)c1)c1cc(Cl)ccc1O [Compound 94]
3,,Cc1ccccc1COc1ccc(Cl)cc1NC(=O)c1cc(Cl)ccc1O [Compound 313]
3,,O=C(Nc1cc(OC2CCCCC2c2ccccc2)ccc1Cl)c1cc(Cl)ccc1O (stereo not drawn) [Compound 281]
3,,Cc1cccc(COc2ccc(Cl)cc2NC(=O)c2cc(Cl)ccc2O)c1 [Compound 311]
3,,O=C(Nc1ccc(OC2CCCC[C@H]2c2ccccc2)cc1)c1cc(Cl)ccc1O (stereo partly drawn) [Compound 97]
3,,O=C(Nc1cc(C(F)(F)F)ccc1NCC(c1ccccc1)c1ccccc1)c1cc(Cl)ccc1O [Compound 275]
3,,COc1cccc(CCOc2ccc(Cl)c(NC(=O)c3cc(Cl)ccc3O)c2)c1 [Compound 33]
3,,CC1CN(c2ccc(NC(=O)c3cc(Cl)ccc3O)c(OCCc3ccccc3C(F)(F)F)c2)CC(C)O1 (stereo not drawn) [Compound 241]
2.6,,Cc1ccc(OCCc2cccc(C(F)(F)F)c2)cc1NC(=O)c1cc(Cl)ccc1O [Compound 333]
2,,Cc1ccc(OCCc2cccc(C(F)(F)F)c2)c(NC(=O)c2cc(Cl)ccc2O)c1 [Compound 157]
2,,O=C(Nc1cc(Cl)ccc1Oc1ccc(Cl)c2ccccc12)c1cc(Cl)ccc1O [Compound 31]
2,,Cc1cc(C)c(OCCc2ccccc2C(F)(F)F)c(NC(=O)c2cc(Cl)ccc2O)c1 [Compound 131]
2,,O=C(Nc1cc(OCCc2ccccc2)c(Cl)cc1Cl)c1cc(Cl)ccc1O [Compound 92]
2,,CCC(COc1ccc(Cl)cc1NC(=O)c1cc(Cl)ccc1O)c1ccccc1 (stereo not drawn) [Compound 103]
2,,CCC(COc1cc(NC(=O)c2cc(Cl)ccc2O)ccc1C)c1ccccc1 (stereo not drawn) [Compound 127]
2,,O=C(Nc1cc(Cl)ccc1OCCc1cccc(OC(F)(F)F)c1)c1cc(Cl)ccc1O [Compound 284]

EC50 [1] [µM],EC50 [2] [µM],SMILES
2,,CN(CC(=O)OC(C)(C)C)c1ccc(NC(=O)c2cc(Cl)ccc2O)cc1C(F)(F)F [Compound 372]
2,,O=C(Nc1cccc(OC2CCCC[C@H]2c2ccccc2)c1)c1cc(Cl)ccc1O (stereo partly drawn) [Compound 17]
2,,O=C(Nc1ccc(Cl)cc1OCCc1ccc(Cl)cc1)c1cc(Cl)ccc1O [Compound 250]
2,,O=C(Nc1cc(Cl)cc(Cl)c1OCCc1cccc(C(F)(F)F)c1)c1cc(Cl)ccc1O [Compound 242]
1.8,,Cc1cccc(COc2ccc(C(F)(F)F)cc2NC(=O)c2cc(Cl)ccc2O)c1 [Compound 307]
1.6,,O=C(Nc1cc(Cl)ccc1OCc1ccc(C(F)(F)F)cc1)c1cc(Cl)ccc1O [Compound 328]
1,,CC(C)c1ccc(CCOc2ccc(Cl)cc2NC(=O)c2cc(Cl)ccc2O)cc1 [Compound 100]
1,,O=C(Nc1cc(C(F)(F)F)ccc1OCCCc1ccccc1)c1cc(Cl)ccc1O [Compound 141]
1,,O=C(Nc1cc(C(F)(F)F)ccc1OCCc1ccc(Cl)cc1Cl)c1cc(Cl)ccc1O [Compound 253]
1,,O=C(Nc1cc(C(F)(F)F)ccc1OCCc1ccc(Cl)s1)c1cc(Cl)ccc1O [Compound 254]
1,,O=C(Nc1ccc(C(F)(F)F)cc1)c1cc(Cl)ccc1O [Compound 61]
1,,Cc1cc(OCCc2ccccc2)c(NC(=O)c2cc(Cl)ccc2O)cc1Cl [Compound 153]
0.9,,O=C(Nc1cc(C(F)(F)F)ccc1OCCc1ccccc1C(F)(F)F)c1cc(Cl)ccc1O [Compound 134]
0.9,,O=C(Nc1cc(C(F)(F)F)ccc1OCCc1ccc(OC(F)(F)F)cc1)c1cc(Cl)ccc1O [Compound 162]
0.9,,O=C(Nc1cc(C(F)(F)F)ccc1OCCOc1ccccc1)c1cc(Cl)ccc1O [Compound 297]
0.9,,O=C(Nc1cc(C(F)(F)F)ccc1OCCc1ccc(Cl)c(Cl)c1)c1cc(Cl)ccc1O [Compound 249]
0.8,,O=C(Nc1cc(C(F)(F)F)ccc1OCCc1ccccc1)c1cc(Cl)ccc1O [Compound 104]
